Results from the NIST ThermoML archive (doi:10.1021/je700411p).
± gives the expanded uncertainty stated by the source.

What was measured:
[1] = refractive index (Na D-line) (dimensionless); details: 298.15 K; 101.33 kPa; Liquid; Standard Abbe refractometry
[2] = Liquid; for mass density: 298.15 K, 101.33 kPa

CC(=O)O [acetic acid]
refractive index [1]: 1.3696 ± 0.0007
mass density [2]: 1043.9 ± 0.15 kg/m3
vapor or sublimation pressure ([2]; 328.56 K, Ebulliometric method (Recirculating still)): 9.98 ± 0.2 kPa
vapor or sublimation pressure ([2]; 330.65 K, Ebulliometric method (Recirculating still)): 10.97 ± 0.2 kPa
vapor or sublimation pressure ([2]; 332.65 K, Ebulliometric method (Recirculating still)): 11.98 ± 0.2 kPa
vapor or sublimation pressure ([2]; 336.23 K, Ebulliometric method (Recirculating still)): 13.97 ± 0.2 kPa
vapor or sublimation pressure ([2]; 339.41 K, Ebulliometric method (Recirculating still)): 15.97 ± 0.2 kPa
vapor or sublimation pressure ([2]; 342.25 K, Ebulliometric method (Recirculating still)): 17.98 ± 0.2 kPa
vapor or sublimation pressure ([2]; 344.81 K, Ebulliometric method (Recirculating still)): 19.98 ± 0.2 kPa
vapor or sublimation pressure ([2]; 347.19 K, Ebulliometric method (Recirculating still)): 21.98 ± 0.2 kPa
vapor or sublimation pressure ([2]; 349.4 K, Ebulliometric method (Recirculating still)): 23.98 ± 0.2 kPa
vapor or sublimation pressure ([2]; 352.43 K, Ebulliometric method (Recirculating still)): 26.97 ± 0.2 kPa
vapor or sublimation pressure ([2]; 355.18 K, Ebulliometric method (Recirculating still)): 29.96 ± 0.2 kPa
vapor or sublimation pressure ([2]; 357.72 K, Ebulliometric method (Recirculating still)): 32.98 ± 0.2 kPa
vapor or sublimation pressure ([2]; 360.09 K, Ebulliometric method (Recirculating still)): 35.94 ± 0.2 kPa
vapor or sublimation pressure ([2]; 362.26 K, Ebulliometric method (Recirculating still)): 38.96 ± 0.2 kPa
vapor or sublimation pressure ([2]; 365 K, Ebulliometric method (Recirculating still)): 42.93 ± 0.2 kPa
vapor or sublimation pressure ([2]; 366.3 K, Ebulliometric method (Recirculating still)): 44.95 ± 0.2 kPa
vapor or sublimation pressure ([2]; 369.3 K, Ebulliometric method (Recirculating still)): 49.94 ± 0.2 kPa
vapor or sublimation pressure ([2]; 372.09 K, Ebulliometric method (Recirculating still)): 54.93 ± 0.2 kPa
vapor or sublimation pressure ([2]; 374.63 K, Ebulliometric method (Recirculating still)): 59.83 ± 0.2 kPa
vapor or sublimation pressure ([2]; 377.03 K, Ebulliometric method (Recirculating still)): 64.87 ± 0.21 kPa
vapor or sublimation pressure ([2]; 379.25 K, Ebulliometric method (Recirculating still)): 69.84 ± 0.21 kPa
vapor or sublimation pressure ([2]; 381.39 K, Ebulliometric method (Recirculating still)): 74.82 ± 0.21 kPa
vapor or sublimation pressure ([2]; 383.35 K, Ebulliometric method (Recirculating still)): 79.71 ± 0.21 kPa
vapor or sublimation pressure ([2]; 385.23 K, Ebulliometric method (Recirculating still)): 84.52 ± 0.21 kPa
vapor or sublimation pressure ([2]; 387.1 K, Ebulliometric method (Recirculating still)): 89.81 ± 0.21 kPa
vapor or sublimation pressure ([2]; 388.77 K, Ebulliometric method (Recirculating still)): 94.52 ± 0.21 kPa
vapor or sublimation pressure ([2]; 390.91 K, Ebulliometric method (Recirculating still)): 101.3 ± 0.21 kPa

CCCCOC(C)=O [butyl ethanoate]
refractive index [1]: 1.3916 ± 0.0008
mass density [2]: 876.02 ± 0.41 kg/m3
vapor or sublimation pressure ([2]; 334.36 K, Ebulliometric method (Recirculating still)): 9.99 ± 0.2 kPa
vapor or sublimation pressure ([2]; 336.53 K, Ebulliometric method (Recirculating still)): 10.98 ± 0.2 kPa
vapor or sublimation pressure ([2]; 338.56 K, Ebulliometric method (Recirculating still)): 11.99 ± 0.2 kPa
vapor or sublimation pressure ([2]; 342.2 K, Ebulliometric method (Recirculating still)): 13.97 ± 0.2 kPa
vapor or sublimation pressure ([2]; 345.47 K, Ebulliometric method (Recirculating still)): 15.99 ± 0.2 kPa
vapor or sublimation pressure ([2]; 348.37 K, Ebulliometric method (Recirculating still)): 17.97 ± 0.2 kPa
vapor or sublimation pressure ([2]; 351.02 K, Ebulliometric method (Recirculating still)): 19.98 ± 0.2 kPa
vapor or sublimation pressure ([2]; 353.45 K, Ebulliometric method (Recirculating still)): 21.97 ± 0.2 kPa
vapor or sublimation pressure ([2]; 355.72 K, Ebulliometric method (Recirculating still)): 23.97 ± 0.2 kPa
vapor or sublimation pressure ([2]; 357.84 K, Ebulliometric method (Recirculating still)): 25.98 ± 0.2 kPa
vapor or sublimation pressure ([2]; 359.79 K, Ebulliometric method (Recirculating still)): 27.92 ± 0.2 kPa
vapor or sublimation pressure ([2]; 362.58 K, Ebulliometric method (Recirculating still)): 30.98 ± 0.2 kPa
vapor or sublimation pressure ([2]; 365.1 K, Ebulliometric method (Recirculating still)): 33.92 ± 0.2 kPa
vapor or sublimation pressure ([2]; 367.5 K, Ebulliometric method (Recirculating still)): 36.96 ± 0.21 kPa
vapor or sublimation pressure ([2]; 369.74 K, Ebulliometric method (Recirculating still)): 39.97 ± 0.21 kPa
vapor or sublimation pressure ([2]; 373.18 K, Ebulliometric method (Recirculating still)): 44.92 ± 0.21 kPa
vapor or sublimation pressure ([2]; 376.31 K, Ebulliometric method (Recirculating still)): 49.9 ± 0.21 kPa
vapor or sublimation pressure ([2]; 379.18 K, Ebulliometric method (Recirculating still)): 54.92 ± 0.21 kPa
vapor or sublimation pressure ([2]; 381.89 K, Ebulliometric method (Recirculating still)): 59.93 ± 0.21 kPa
vapor or sublimation pressure ([2]; 384.4 K, Ebulliometric method (Recirculating still)): 64.95 ± 0.21 kPa
vapor or sublimation pressure ([2]; 386.74 K, Ebulliometric method (Recirculating still)): 69.92 ± 0.22 kPa
vapor or sublimation pressure ([2]; 388.96 K, Ebulliometric method (Recirculating still)): 74.95 ± 0.22 kPa
vapor or sublimation pressure ([2]; 391.05 K, Ebulliometric method (Recirculating still)): 79.91 ± 0.22 kPa
vapor or sublimation pressure ([2]; 393.02 K, Ebulliometric method (Recirculating still)): 84.83 ± 0.22 kPa
vapor or sublimation pressure ([2]; 394.94 K, Ebulliometric method (Recirculating still)): 89.87 ± 0.23 kPa
vapor or sublimation pressure ([2]; 396.72 K, Ebulliometric method (Recirculating still)): 94.73 ± 0.23 kPa
vapor or sublimation pressure ([2]; 399.05 K, Ebulliometric method (Recirculating still)): 101.3 ± 0.23 kPa

CCCCO [butan-1-ol]
refractive index [1]: 1.396 ± 0.0007
mass density [2]: 805.6 ± 0.29 kg/m3
vapor or sublimation pressure ([2]; 390.46 K): 101.3 kPa
